Test results reported in patent US4183920A, “4-N-Acyl, 2'-N-acyl and 4,2'-N,N'-diacylfortimicin E derivatives” (Abbott Laboratories, priority 1977, dated 1980).
Counter-ions that a name gives are not always drawn. Like-named read-outs stand apart in the source and are kept apart here.

What was measured:
Test in all cases: In vitro antibiotic activity, 2-fold agar dilution method
Format in all cases: cell-based
[1] = system: Bacillus subtilus U. Ill. 10707
Description: (§1) The in vitro antibiotic activity is determined by a 2-fold agar dilution method using 10 ml. per petri plate of Mueller-Hinton agar. The agar is inoculated with one loopful (0.001 ml. loop) of a 1:10 dilution of a 24 hour broth culture of the indicated test organism and incubated at 37° C. for 24 hours. Minimum inhibitory concentrations (MIC) are expressed as mcg/ml.

[2] = system: E. coli Juhl; conditions: Escherichia coli
Description: as §1

[3] = system: E. coli R3; conditions: Escherichia coli
Description: as §1

[4] = system: Kleb. pneumoniae KY 4262; conditions: Klebsiella pneumoniae
Description: as §1

[5] = system: Proteus vulgaris JJ
Description: as §1

[6] = system: Pseudo aeruginosa
Description: as §1

[7] = system: Sal. typhimurium Ed #9; conditions: Salmonella enterica
Description: as §1

[8] = system: Shigella sonnei 9290; conditions: Mueller-Hinton agar, 37° C., 24 hours
Description: as §1

[9] = system: Staph aureus Smith; conditions: Staphylococcus aureus
Description: as §1

[10] = system: Strep. faecalis 10541
Description: as §1

[11] = Bacillus subtilus U. Ill. 10707, Mueller-Hinton agar, 37° C., 24 hours, read-out: MIC
[12] = E. coli Juhl, Mueller-Hinton agar, 37° C., 24 hours, read-out: MIC
[13] = E. coli R3, Mueller-Hinton agar, 37° C., 24 hours, read-out: MIC
[14] = KY4262, Kleb. pneumoniae KY 4262, Mueller-Hinton agar, 37° C., 24 hours, read-out: MIC
[15] = Proteus vulgaris JJ, Mueller-Hinton agar, 37° C., 24 hours, read-out: MIC
[16] = Pseudo aeruginosa, Mueller-Hinton agar, 37° C., 24 hours, read-out: MIC
[17] = Sal. typhimurium Ed #9, Mueller-Hinton agar, 37° C., 24 hours, read-out: MIC
[18] = Staph aureus Smith, Mueller-Hinton agar, 37° C., 24 hours, read-out: MIC
[19] = Enterococcus faecalis, Strep. faecalis 10541, Mueller-Hinton agar, 37° C., 24 hours, read-out: MIC

| SMILES | MIC ([1]; Bacillus, U.ILL.10707, 24 h) [mg/L] | MIC ([2]; 24 h) [mg/L] | MIC ([3]; R3, 24 h) [mg/L] | MIC ([4]; KY4262, 24 h) [mg/L] | MIC ([5]; Proteus vulgaris, 24 h) [mg/L] | MIC ([6]; 24 h) [mg/L] | MIC ([7]; TYPHIMURIUM, 24 h) [mg/L] | MIC [8] [mg/L] | MIC ([9]; 24 h) [mg/L] | MIC ([10]; Enterococcus faecalis, 10541, 24 h) [mg/L] | MIC [1, 11] [mg/L] | MIC [2, 12] [mg/L] | MIC [3, 13] [mg/L] | MIC [4, 14] [mg/L] | MIC [5, 15] [mg/L] | MIC [6, 16] [mg/L] | MIC [7, 17] [mg/L] | MIC [9, 18] [mg/L] | MIC [10, 19] [mg/L] |
| --- | --- | --- | --- | --- | --- | --- | --- | --- | --- | --- | --- | --- | --- | --- | --- | --- | --- | --- | --- |
| COC1C(O)C(N)C(OC2OC(C(C)N)CCC2N)C(O)C1N(C)C(=O)CN (stereo not shown) [4-N-glycylfortimicin E tetrahydrochloride salt] | 12.5 | 6.25 | > 100 | 25 | > 100 | > 100 | 25 | 25 | 6.25 | > 100 | – | – | – | – | – | – | – | – | – |
| COC1C(O)C(N)C(OC2OC(C(C)N)CCC2N)C(O)C1N(C)C(=O)[C@@H](O)CCN (stereo partly drawn) [4-N-L-(2-hydroxy-4-amino)butyrylfortimicin E tetrahydrochloride salt] | – | – | – | – | – | – | – | > 100 | – | – | 12.5 | 50 | > 100 | 50 | > 100 | > 100 | 100 | 25 | > 100 |
| COC1C(O)C(N)C(OC2OC(C(C)N)CCC2N)C(O)C1N(C)C(=O)CCN (stereo not drawn) [4-N-β-alanylfortimicin E tetrahydrochloride salt] | – | – | – | – | – | – | – | > 100 | – | – | 12.5 | 25 | > 100 | 25 | > 100 | > 100 | 25 | 12.5 | > 100 |
| CNCC(=O)N(C)C1C(O)C(OC2OC(C(C)N)CCC2N)C(N)C(O)C1OC (stereo not shown) [4-N-sarcosylfortimicin E tetrahydrochloride salt] | – | – | – | – | – | – | – | 100 | – | – | 6.25 | 50 | > 100 | 100 | > 100 | > 100 | 50 | 25 | > 100 |
